Reference: ChEMBL document CHEMBL1150275, “Pharmacological and pharmacokinetic characterization of 2-piperazine-alpha-isopropyl benzylamine derivatives as melanocortin-4 receptor antagonists” (Bioorg Med Chem, 2008)

Experiments:
[1] = Oral bioavailability in rat at 10 mg/kg; type: ADME, organism-based; settings: in vivo
[2] = physchem; settings: buffer, pH 7.4
[3] = AUC in mouse at 10 mg/kg, po; type: ADME, organism-based; parameters: dose 10 mg/kg, route oral; settings: plasma
[4] = Tmax in monkey at 5 mg/kg, iv and 10 mg/kg, po; type: ADME, organism-based, Macaca mulatta; settings: rhesus monkey, in vivo
[5] = Drug level in rat brain at 10 mg/kg, po after 4 hrs; type: ADME, organism-based; parameters: dose 10 mg/kg, route oral; settings: read-out: Drug uptake
[6] = Cmax in rat brain at 10 mg/kg, po; type: ADME, organism-based; parameters: dose 10 mg/kg, route oral
[7] = AUC in dog at 10 mg/kg, po; type: ADME, organism-based, Canis lupus familiaris; parameters: dose 10 mg/kg, route oral; settings: plasma
[8] = Ratio of drug level in brain to plasma in mouse at 5 mg/kg, iv after 1 hr; type: ADME, organism-based; parameters: dose 5 mg/kg, route intravenous
[9] = Cmax in monkey at 5 mg/kg, iv and 10 mg/kg, po; type: ADME, organism-based, Macaca mulatta; settings: rhesus monkey, in vivo
[10] = Ratio of drug level in brain to plasma in mouse at 5 mg/kg, iv after 4 hrs; type: ADME, organism-based; parameters: dose 5 mg/kg, route intravenous
[11] = Oral bioavailability in dog at 10 mg/kg; type: ADME, organism-based, Canis lupus familiaris; settings: in vivo
[12] = Drug level in mouse brain at 5 mg/kg, iv after 4 hrs; type: ADME, organism-based; parameters: dose 5 mg/kg, route intravenous; settings: read-out: Drug uptake
[13] = Drug level in rat brain at 10 mg/kg, po after 1 hr; type: ADME, organism-based; parameters: dose 10 mg/kg, route oral; settings: read-out: Drug uptake
[14] = Volume of distribution in mouse at 5 mg/kg, iv and 10 mg/kg, po; type: ADME, organism-based; settings: in vivo
[15] = Tmax in mouse at 5 mg/kg, iv and 10 mg/kg, po; type: ADME, organism-based; settings: in vivo
[16] = Ratio of Cmax in brain to plasma in rat at 10 mg/kg, po after 4 hrs; type: ADME, organism-based; parameters: dose 10 mg/kg, route oral; settings: brain and plasma
[17] = Cmax in dog at 5 mg/kg, iv and 10 mg/kg, po; type: ADME, organism-based, Canis lupus familiaris; settings: in vivo
[18] = Volume of distribution in dog at 5 mg/kg, iv and 10 mg/kg, po; type: ADME, organism-based, Canis lupus familiaris; settings: in vivo
[19] = Ratio of Cmax in brain to plasma in rat at 10 mg/kg, po; type: ADME, organism-based; parameters: dose 10 mg/kg, route oral; settings: brain and plasma
[20] = Tmax in rat brain at 10 mg/kg, po; type: ADME, organism-based; parameters: dose 10 mg/kg, route oral
[21] = Tmax in dog at 5 mg/kg, iv and 10 mg/kg, po; type: ADME, organism-based, Canis lupus familiaris; settings: in vivo
[22] = Tmax in rat at 5 mg/kg, iv and 10 mg/kg, po; type: ADME, organism-based; settings: in vivo
[23] = Volume of distribution in monkey at 5 mg/kg, iv and 10 mg/kg, po; type: ADME, organism-based, Macaca mulatta; settings: rhesus monkey, in vivo
[24] = AUC in rat at 10 mg/kg, po; type: ADME, organism-based; parameters: dose 10 mg/kg, route oral; settings: plasma
[25] = system: Brain; test: AUC in rat brain at 10 mg/kg, po; type: ADME, organism-based; parameters: dose 10 mg/kg, route oral; settings: in vivo
[26] = Cmax in mouse at 5 mg/kg, iv and 10 mg/kg, po; type: ADME, organism-based; settings: in vivo
[27] = Ratio of AUC in brain to plasma in rat at 10 mg/kg, po; type: ADME, organism-based; parameters: dose 10 mg/kg, route oral; settings: brain and plasma
[28] = Oral bioavailability in mouse at 10 mg/kg; type: ADME, organism-based; settings: in vivo
[29] = Cmax in rat at 5 mg/kg, iv and 10 mg/kg, po; type: ADME, organism-based; settings: in vivo
[30] = system: Caco-2; test: Apparent permeability across human Caco-2 cells; type: ADME, cell-based
[31] = Ratio of Cmax in brain to plasma in rat at 10 mg/kg, po after 1 hr; type: ADME, organism-based; parameters: dose 10 mg/kg, route oral; settings: brain and plasma
[32] = Volume of distribution in rat at 5 mg/kg, iv and 10 mg/kg, po; type: ADME, organism-based; settings: in vivo
[33] = Drug level in mouse brain at 5 mg/kg, iv after 1 hr; type: ADME, organism-based; parameters: dose 5 mg/kg, route intravenous; settings: read-out: Drug uptake
[34] = Oral bioavailability in monkey at 10 mg/kg; type: ADME, organism-based, Macaca mulatta; settings: rhesus monkey, in vivo
[35] = AUC in monkey at 10 mg/kg, po; type: ADME, organism-based, Macaca mulatta; parameters: dose 10 mg/kg, route oral; settings: rhesus monkey, plasma

bioavailability [1]: 31%
logD [2]: 2.4
AUC [3]: 2690 ng·h/mL
Tmax [4]: 6.7 h
concentration at 4 h [5]: 38 ng/g
Cmax [6]: 52 ng/g
AUC [7]: 3850 ng·h/mL
Kp at 1 h [8]: 0.6
Cmax [9]: 200 ng/mL
Kp at 4 h [10]: 0.8
bioavailability [11]: 37%
concentration at 4 h [12]: 175 ng/g
concentration at 1 h [13]: 6.3 ng/g
Vd [14]: 5.2 L/kg
Tmax [15]: 0.5 h
Kp at 4 h [16]: 0.2
Cmax [17]: 250 ng/mL
Vd [18]: 8.7 L/kg
Kp [19]: 0.27
Tmax [20]: 6 h
Tmax [21]: 4 h
Tmax [22]: 6 h
Vd [23]: 5.6 L/kg
AUC [24]: 1290 ng·h/mL
AUC [25]: 618 ng·h/g
Cmax [26]: 308 ng/mL
Kp [27]: 0.48
bioavailability [28]: 42%
Cmax [29]: 195 ng/mL
Papp [30]: 10 ×10⁻⁶ cm/s
Kp at 1 h [31]: 0.05
Vd [32]: 7.7 L/kg
concentration at 1 h [33]: 322 ng/g
bioavailability [34]: 21%
AUC [35]: 2650 ng·h/mL
SMILES: CC(C)[C@H](NC(=O)CCN(C)C)c1cccc(F)c1N1CCN(C(=O)[C@H](C)Cc2ccc(Cl)cc2)CC1
